Results reported in ChEMBL document CHEMBL5725365, “Tyrosine kinase inhibitors” (2017).
pIC50: −log10 of the molar value.

Molecular target: Tyrosine-protein kinase BTK (Homo sapiens, UniProt Q06187)
Test: Enzymatic Activity Assay: A Caliper-based kinase assay (Caliper Life Sciences, Hopkinton, Mass.) was used to measure inhibition of BTK kinase activity of a compound of the present disclosure. Serial dilutions of test compounds were incubated with human recombinant BTK (0.5 nM), ATP (16 μM) and a phosphoacceptor peptide substrate FAM-[…]-NH2(1 μM) at room temperature for 3 h. The reaction was then terminated with EDTA, final concentration 20 mM and the phosphorylated reaction product was quantified on a Caliper Desktop Profiler (Caliper LabChip 3000).

Tyrosine-protein kinase BTK, sequence (Q06187 whole entry): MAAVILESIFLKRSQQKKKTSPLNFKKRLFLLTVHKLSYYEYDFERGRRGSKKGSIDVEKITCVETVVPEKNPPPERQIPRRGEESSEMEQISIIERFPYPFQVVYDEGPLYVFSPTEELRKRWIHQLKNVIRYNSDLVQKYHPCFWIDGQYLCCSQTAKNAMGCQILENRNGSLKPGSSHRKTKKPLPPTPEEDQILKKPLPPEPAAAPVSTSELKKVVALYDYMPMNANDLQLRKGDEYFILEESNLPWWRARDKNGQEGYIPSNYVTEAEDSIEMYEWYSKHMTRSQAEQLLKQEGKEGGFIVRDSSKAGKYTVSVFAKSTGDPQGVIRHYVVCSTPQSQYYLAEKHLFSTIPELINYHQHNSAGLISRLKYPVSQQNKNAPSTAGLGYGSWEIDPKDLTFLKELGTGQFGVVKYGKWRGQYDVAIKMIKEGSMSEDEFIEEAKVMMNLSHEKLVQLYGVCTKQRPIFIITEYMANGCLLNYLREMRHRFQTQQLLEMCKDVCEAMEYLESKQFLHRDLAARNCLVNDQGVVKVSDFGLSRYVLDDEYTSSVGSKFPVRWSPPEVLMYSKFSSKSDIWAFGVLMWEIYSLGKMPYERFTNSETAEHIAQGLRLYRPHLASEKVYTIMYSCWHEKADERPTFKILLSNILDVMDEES

CC(C)(C=C(C#N)C(=O)N1CCC[C@@H](n2c(=O)n(-c3ccc(Oc4ccccc4)cc3)c3c(N)nccc32)C1)C(=O)N1CCN(C2COC2)CC1
pIC50: 7.62
